Measurements as given in publication PMC9343874, “Comparative Pharmacokinetics of Cinobufacini Capsule and Injection by UPLC-MS/MS” (Frontiers in Pharmacology, 2022).
Like-named read-outs stand apart in the source and are kept apart here.

Assays:
[1] = Pharmacokinetic study in rats after oral administration of cinobufacini capsule (UPLC-MS/MS of plasma); assay type: in vivo, rat; details: male, Sprague-Dawley, in vivo, rat plasma, mean ± SD, n = 6; for CL/F: read-out: CLz/F (converted); for MRT last: read-out: MRT0-t; for MRT inf: read-out: MRT0-∞; for half-life: read-out: T1/2z (converted); for Vd/F: read-out: Vz/F
In short: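 Male SD rats (200–220 g), fasted 12 h, six per group; cinobufacini capsule given orally at three doses or injection intravenously. Retro-orbital plasma sampled 0.05–10 h, extracted with ethyl acetate plus internal standard, quantified by UPLC-MS/MS (ESI+, MRM); parameters calculated by non-compartmental-style software as mean ± SD.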

[2] = Stability of analytes in rat plasma QC samples under storage conditions; assay type: physicochemical; details: n = 6; for Stability during 24 h at 4°C, RE: post-treatment storage in autosampler; for −80°C for 30 days, RE / Three freeze–thaw cycles, RE: rat plasma; for −80°C for 30 days, RE: long-term; for Three freeze–thaw cycles, RE: −80°C to room temperature
In short: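 QC samples at low, medium and high levels (n=6) were tested after 24 h in the autosampler at 4 °C, after three freeze–thaw cycles from −80 °C to room temperature, and after 30 days at −80 °C. Concentrations were read from daily calibration curves. Stability was accepted when RE and RSD were within ±15% of nominal.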

[3] = oral cinobufacini capsule 0.9 g/kg (low)
[4] = oral cinobufacini capsule 1.8 g/kg (medium)
[5] = oral cinobufacini capsule 3.6 g/kg (high)
[6] = high QC level (249.58–250.28 ng/ml)
[7] = medium QC level (49.92–50.06 ng/ml)

## C[C@]12CC[C@H](O)C[C@@]1(O)CC[C@@H]1[C@@H]2CC[C@]2(C)[C@@H](c3ccc(=O)oc3)CC[C@]12O [TCG, telocinobufagin]
[1]; [3]
  AUC(0-inf): 24.5 ± 10.3 ng·h/mL
  AUC(0-t): 24.5 ± 10.3 ng·h/mL
  Cmax: 35.2 ± 21 ng/mL
  Tmax: 21.6 ± 12 min
  CL/F: 128 mL/min/kg
  MRT last: 38.4 ± 3.6 min
  MRT inf: 38.4 ± 3.6 min
  half-life: 9.6 ± 0.6 min
  Vd/F: 1.75 ± 0.6 L/kg
[1]; [4]
  AUC(0-inf): 89.9 ± 24.1 ng·h/mL
  AUC(0-t): 89.7 ± 23.8 ng·h/mL
  Cmax: 109 ± 41.3 ng/mL
  Tmax: 17.4 ± 5.4 min
  CL/F: 66.2 mL/min/kg
  MRT last: 43.8 ± 6.6 min
  MRT inf: 44.4 ± 6.6 min
  half-life: 12.6 ± 6.6 min
  Vd/F: 1.13 ± 0.37 L/kg
[1]; [5]
  AUC(0-inf): 217 ± 82.4 ng·h/mL
  AUC(0-t): 217 ± 82.4 ng·h/mL
  Cmax: 253 ± 83.8 ng/mL
  Tmax: 19.2 ± 7.2 min
  CL/F: 60.3 mL/min/kg
  MRT last: 49.8 ± 7.8 min
  MRT inf: 49.8 ± 7.8 min
  half-life: 31.8 ± 1.2 min
  Vd/F: 2.76 ± 1.67 L/kg
[2]; [6]
  Stability during 24 h at 4°C, RE: −4.7%
  −80°C for 30 days, RE: −2.1%
  Three freeze–thaw cycles, RE: -6.6%
[2]; low QC level (4.99–5.00 ng/ml)
  Stability during 24 h at 4°C, RE: −0.3%
  −80°C for 30 days, RE: 0.9%
  Three freeze–thaw cycles, RE: 5.8%
[2]; [7]
  Stability during 24 h at 4°C, RE: −4.2%
  −80°C for 30 days, RE: 3.8%
  Three freeze–thaw cycles, RE: 0.0%
